The compounds below were run against T1, renin (Homo sapiens, UniProt P00797) (assay: in vitro renin inhibitory activity, radioimmunoassay for angiotensin I). Details: 10^-6 molar test compound; renin incubated 2 hours at 37° with substrate angiotensinogen; angiotensin I by radioimmunoassay.
T1 sequence (P00797 67-406): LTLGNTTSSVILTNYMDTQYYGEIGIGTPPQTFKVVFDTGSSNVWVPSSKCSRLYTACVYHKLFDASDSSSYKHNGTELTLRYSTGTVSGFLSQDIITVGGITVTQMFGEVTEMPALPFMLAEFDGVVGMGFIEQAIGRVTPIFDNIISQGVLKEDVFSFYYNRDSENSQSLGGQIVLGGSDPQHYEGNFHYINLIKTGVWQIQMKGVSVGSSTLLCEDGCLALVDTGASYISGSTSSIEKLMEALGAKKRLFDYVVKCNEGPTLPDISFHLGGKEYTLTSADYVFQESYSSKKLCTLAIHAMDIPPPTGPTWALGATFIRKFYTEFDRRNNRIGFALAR
Format: biochemical
Protocol: The effectiveness of the aforementioned compounds is determined by a test for in vitro renin inhibitory activity. This activity is determined by a standard radioimmunoassay for angiotensin I. In this assay the enzyme, renin, incubated for 2 hours at 37° in the presense of a substrate, angiotensinogen, generates the product, angiotensin I. Test compounds are added to the incubation mixture. Relative activity is reported as the percent inhibition at 10^-6 molar concentration.

Activity % Inhibition @ 10^-6 M [%]	Compound
40	CCC(C)CNC(=O)CC(O)C(CC(C)C)NC(=O)C(NC(=O)C(Cc1cccc2ccccc12)Cc1cccc2ccccc12)Sc1ccccc1 (centres unmarked) [DNMANHCH(SPh)COSTANHCH2 CH(CH3)CH2 CH3, DNMA-NHCH(SPh)CO-STA-NHCH2 CH(CH3) CH2 CH3]
35	CCC(C)CNC(=O)CC(O)C(CC(C)C)NC(=O)C(NC(=O)C(Cc1cccc2ccccc12)Cc1cccc2ccccc12)[S+](C)[O-] (centres unmarked) [DNMANHCH(SOCH3)COSTANHCH2 CH(CH3)CH2 CH3, DNMA-NHCH(SOCH3)CO-STA-NHCH2 CH(CH3)CH2 CH3]
26	CCC(C)CNC(=O)CC(O)C(CC(C)C)NC(=O)C(NC(=O)C(Cc1cccc2ccccc12)Cc1cccc2ccccc12)SC(C)C (single isomer, unassigned) [DNMANHCH(SCH(CH3)2)COSTANHCH2 CH(CH3)CH2 CH3 (slow isomer), DNMA-NHCH(SCH(CH3)2)CO-STA-NHCH2 CH(CH3)CH2 CH3]
56	CCC(C)CNC(=O)CC(O)C(CC(C)C)NC(=O)C(NC(=O)C(Cc1cccc2ccccc12)Cc1cccc2ccccc12)Nc1ccccc1 (centres unmarked) [DNMANHCH(NHPh)COSTANHCH2 CH(CH3)CH2 CH3, DNMA-NHCH(NHPh)CO-STA-NHCH2 CH(CH3)CH2 CH3]
36	DNMA-NHCH(NH(CH2)3 NHCSNHCH3)CO-STA-NHCH2 CH(CH3)CH2 CH3
71	DNMA-NHCH(NHC2 H5)CO-STA-NHCH2 CH(CH3) CH2 CH3 [DNMANHCH(NHC2 H5)COSTANHCH2 CH(CH3)CH2 CH3 (slow isomer)]
55	CCC(C)CNC(=O)CC(O)C(CC(C)C)NC(=O)C(NC(=O)C(Cc1cccc2ccccc12)Cc1cccc2ccccc12)N(C)C (single isomer, unassigned) [DNMANHCH(N(CH3)2)COSTANHCH2 CH(CH3)CH2 CH3 (slow isomer), DNMA-NHCH(N(CH3)2 CO-STA-NHCH2 CH(CH3)CH2 CH3]
60	DNMA-NHCH(NHCH(CH3)2)CO-STA-NHCH2 CH(CH3)CH2 CH3 [DNMA-NHCH(NHCH(CH3)2)COSTANHCH2 CH(CH3)CH2 CH3 (slow isomer)]
39	CCC(C)CNC(=O)CC(O)C(CC(C)C)NC(=O)C(NC(C)=O)NC(=O)C(Cc1cccc2ccccc12)Cc1cccc2ccccc12 (centres unmarked) [DNMA-NHCH(NHCOCH3)CO-STA-NHCH2 CH(CH3)CH2 CH3]
90	CCC(C)CNC(=O)C[C@H](O)[C@H](CC(C)C)NC(=O)C(NC(=O)C(Cc1cccc2ccccc12)Cc1cccc2ccccc12)OC (some centres unmarked) [DNMANHCH(OCH3)COSTANHCH2 CH(CH3)CH2 CH3, DNMA-NHCH(OCH3)CO-STA-NHCH2 CH(CH3)CH2 CH3]
87	CCC(C)CNC(=O)CC(O)C(CC(C)C)NC(=O)C(NC(=O)C(Cc1cccc2ccccc12)Cc1cccc2ccccc12)SC(C)C (single isomer, unassigned) [DNMANHCH(SCH(CH3)2)COSTANHCH2 CH(CH3)CH2 CH3 (fast isomer), DNMA-NHCH(SCH(CH3)2)CO-STA-NHCH2 CH(CH3)CH2 CH3]
15	DNMA-NHCH(OC2 H5)CO-STA-NHCH2 CH(CH3)CH2 CH3 [DNMANHCH(OC2 H5)COSTANHCH2 CH(CH3)CH2 CH3 (slow isomer)]
86	CCC(C)CNC(=O)CC(O)C(CC(C)C)NC(=O)C(NC(=O)C(Cc1cccc2ccccc12)Cc1cccc2ccccc12)SC (centres unmarked) [DNMANHCH(SCH3)COSTANHCH2 CH(CH3)CH2 CH3, DNMA-NHCH(SCH3)CO-STA-NHCH2 CH(CH3)CH2 CH3]
40	CCOC(=O)NC(NC(=O)C(Cc1cccc2ccccc12)Cc1cccc2ccccc12)C(=O)NC(CC(C)C)C(O)CC(=O)NCC(C)CC (centres unmarked) [DNMA-NHCH(NHCO2 Et)CO-STA-NHCH2 CH(CH3)CH2 CH3]
54	DNMA-NHCH(NH2)CO-STA-NHCH2 CH(CH3)CH2 CH3 [DNMANHCH(NH2)COSTANHCH2 CH(CH3)CH2 CH3 (slow isomer)]
9	CCC(C)CNC(=O)CC(O)C(CC(C)C)NC(=O)C(N)NC(=O)C(Cc1cccc2ccccc12)Cc1cccc2ccccc12 (single isomer, unassigned) [DNMANHCH(NH2)COSTANHCH2 CH(CH3)CH2 CH3 (fast isomer), DNMA-NHCH(NH2)CO-STA-NHCH2 CH(CH3)CH2 CH3]
100	CCOC(NC(=O)C(Cc1cccc2ccccc12)Cc1cccc2ccccc12)C(=O)N[C@@H](CC(C)C)[C@@H](O)CC(=O)NCC(C)CC (single isomer, unassigned) [DNMANHCH(OC2 H5)COSTANHCH2 CH(CH3)CH2 CH3 (fast isomer), DNMA-NHCH(OC2 H5)CO-STA-NHCH2 CH(CH3)CH2 CH3]

Reference: patent US5036054A, “Renin inhibitors containing alpha-heteroatom amino acids” (Warner-Lambert Company, priority 1988, dated 1991)
